Results as given in patent US10590086B2, “Pharmaceutical compound” (IOmet Pharma Ltd., priority 2014, dated 2020).

What was measured:
IDO [1] = target: T1, IDO (Homo sapiens, UniProt P14902); assay: SKOV3 kynurenine cell-based assay (IDO induced by IFN-γ); parameters: IDO expression was induced in the SKOV3 cells by the addition of 500 ng/ml IFN-γ; endogenous in cells; host or cells: SKOV3 (human ovarian adenocarcinoma), induced with IFN-γ; details: 48 hours, read-out: SKOV3 Kynurenine cell based assay pIC50 (converted)
Outline: (§1)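 Cellular kynurenine production, TDO via A172 glioblastoma and IDO via IFN-γ-stimulated SKOV3 ovarian adenocarcinoma cells, was quantified after 48 hours' compound treatment in 500 μM L-tryptophan medium, using Erhlich's reagent and absorbance at 490 nm.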

TDO [2] = target: T2, TDO (Homo sapiens, UniProt P48775); assay: hTDO biochemical coupled assay; details: 330 μM L-tryptophan, read-out: hTDO biochemical assay pIC50 (converted)
IDO [3] = target: T1, IDO; assay: hIDO biochemical coupled assay; details: 45 μM L-tryptophan, read-out: hIDO biochemical assay pIC50 (converted)
TDO [4] = target: T2, TDO; assay: A172 kynurenine cell-based assay; parameters: This assay utilised cancer cells which expressed either TDO or IDO; endogenous in cells; host or cells: A172 (human glioblastoma); details: A172 human glioblastoma cells, 48 hours, read-out: A172 Kynurenine cell based assay pIC50 (converted)
Outline: as §1

[5] = SKOV3 human ovarian adenocarcinoma cells, 500 ng/ml IFN-γ, 500 μM L-tryptophan

T2 sequence (P48775 whole entry): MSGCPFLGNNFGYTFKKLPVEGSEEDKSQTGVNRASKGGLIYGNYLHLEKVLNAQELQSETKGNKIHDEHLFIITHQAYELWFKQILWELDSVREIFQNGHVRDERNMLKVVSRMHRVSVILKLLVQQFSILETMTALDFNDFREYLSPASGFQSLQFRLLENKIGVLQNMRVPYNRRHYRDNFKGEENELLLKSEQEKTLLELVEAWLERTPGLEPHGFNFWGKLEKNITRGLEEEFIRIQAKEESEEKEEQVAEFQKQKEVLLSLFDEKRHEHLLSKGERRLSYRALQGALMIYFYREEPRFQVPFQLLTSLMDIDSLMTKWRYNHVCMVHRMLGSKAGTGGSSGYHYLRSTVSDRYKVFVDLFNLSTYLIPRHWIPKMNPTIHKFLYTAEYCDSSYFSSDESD
T1 sequence (P14902 whole entry): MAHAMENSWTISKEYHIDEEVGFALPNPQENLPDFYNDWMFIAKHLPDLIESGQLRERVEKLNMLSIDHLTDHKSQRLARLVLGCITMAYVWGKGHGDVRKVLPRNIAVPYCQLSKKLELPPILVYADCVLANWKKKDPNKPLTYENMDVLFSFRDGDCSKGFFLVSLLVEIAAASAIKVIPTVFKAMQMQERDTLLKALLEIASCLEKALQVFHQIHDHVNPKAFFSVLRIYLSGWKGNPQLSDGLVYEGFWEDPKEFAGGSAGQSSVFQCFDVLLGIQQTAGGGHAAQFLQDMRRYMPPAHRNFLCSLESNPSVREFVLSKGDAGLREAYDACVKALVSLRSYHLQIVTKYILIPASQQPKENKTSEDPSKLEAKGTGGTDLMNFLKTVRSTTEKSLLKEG

Row | SMILES | IC50 (IDO [1]; [5]) [µM] | IC50 (TDO [2]; 17 minutes, room temperature) [µM] | IC50 (IDO [3]; 17 minutes, room temperature) [µM] | IC50 (TDO [4]; 500 μM L-tryptophan) [µM] | IC50 (IDO [1]; SKOV3 cells, IDO induced by 500 ng/ml IFN-γ) [µM] | IC50 (TDO [2]) [µM] | IC50 (IDO [3]) [µM] | IC50 (TDO [4]) [µM]
1 | Cc1nc2c([nH]1)CN(c1cc(Cl)cc3[nH]ncc13)CC2 [Compound 211] | 32.4 to 100 | < 3.16 | 32.4 to 100 | 3.24 to 31.6 |  |  |  | 
2 | Cc1nc2c([nH]1)CN(c1cc(C(F)(F)F)cc3[nH]ncc13)CC2 [Compound 212] | 32.4 to 100 | < 3.16 | > 100 | < 3.16 |  |  |  | 
3 | CC(=O)N(C)c1cc(N2CCN(S(C)(=O)=O)CC2)c2cn[nH]c2c1 [Compound 213] | 32.4 to 100 | > 100 | > 100 | 32.4 to 100 |  |  |  | 
4 | C[C@H]1CN(S(C)(=O)=O)CCN1c1cc(C(F)(F)F)cc2[nH]ncc12 [Compound 214] | 3.24 to 31.6 | < 3.16 | 32.4 to 100 | < 3.16 |  |  |  | 
5 | O=C1CCC2(CCN(c3cc(Cl)cc4[nH]ncc34)CC2)N1 [Compound 215] | 3.24 to 31.6 | < 3.16 | 3.24 to 31.6 | < 3.16 |  |  |  | 
6 | O=C1CCCC2(CCN(c3cc(Cl)cc4[nH]ncc34)CC2)N1 [Compound 216] | 3.24 to 31.6 | < 3.16 | > 100 | < 3.16 |  |  |  | 
7 | CC(=O)N1CCC(c2cc(C3CCCC3)cc3[nH]ncc23)CC1 [Compound 217] | 32.4 to 100 | > 100 | > 100 | > 100 |  |  |  | 
8 | CS(=O)(=O)N1CCC(c2cc(C3CCCC3)cc3[nH]ncc23)CC1 [Compound 218] | 32.4 to 100 | > 100 | 32.4 to 100 | > 100 |  |  |  | 
9 | CC1(C)CN(c2cc(OC(F)(F)F)cc3[nH]ncc23)CCN1S(C)(=O)=O [Compound 219] | 3.24 to 31.6 | < 3.16 | 3.24 to 31.6 | < 3.16 |  |  |  | 
10 | NC(=O)C1CCN(c2cc(Cl)cc3[nH]ncc23)CC1 [Compound 226] | 3.24 to 31.6 | < 3.16 | < 3.16 | < 3.16 |  |  |  | 
11 | CC1(C)CN(c2cc(Cl)cc3[nH]ncc23)CCN1S(N)(=O)=O [Compound 227] | < 3.16 | < 3.16 | < 3.16 | < 3.16 |  |  |  | 
12 | COCCS(=O)(=O)N1CCC(c2cc(Cl)cc3[nH]ncc23)CC1 [Compound 228] | 3.24 to 31.6 | < 3.16 | 3.24 to 31.6 | < 3.16 |  |  |  | 
13 | CC(=O)N1C2CCC1CN(c1cc(Cl)cc3[nH]ncc13)C2 [Compound 231] | 3.24 to 31.6 | < 3.16 | 3.24 to 31.6 | < 3.16 |  |  |  | 
14 | CS(=O)(=O)N1C2CCC1CN(c1cc(Cl)cc3[nH]ncc13)C2 [Compound 232] | 3.24 to 31.6 | < 3.16 | 3.24 to 31.6 | < 3.16 |  |  |  | 
15 | CC(=O)Nc1ccc(-c2cc(Cl)cc3[nH]ncc23)cc1 [Compound 246] | 3.24 to 31.6 | < 3.16 | > 100 | < 3.16 |  |  |  | 
16 | CNC(=O)C1CCN(c2cc(Cl)cc3[nH]ncc23)CC1 [Compound 249] | 3.24 to 31.6 | < 3.16 | 3.24 to 31.6 | < 3.16 |  |  |  | 
17 | CC(=O)NC1CCN(c2cc(Cl)cc3[nH]ncc23)CC1 [Compound 250] | 3.24 to 31.6 | < 3.16 | 32.4 to 100 | < 3.16 |  |  |  | 
18 | CC(=O)N(C)C1CCN(c2cc(Cl)cc3[nH]ncc23)CC1 [Compound 251] | 3.24 to 31.6 | < 3.16 | < 3.16 | < 3.16 |  |  |  | 
19 | Cc1nc2c(n1C)CCN(c1cc(Cl)cc3[nH]ncc13)C2 [Compound 252] | 32.4 to 100 | < 3.16 | > 100 | < 3.16 |  |  |  | 
20 | CN(C)C(=O)c1ccc(-c2cc(Cl)cc3[nH]ncc23)cc1 [Compound 255] | 3.24 to 31.6 | 3.24 to 31.6 | > 100 | < 3.16 |  |  |  | 
21 | NC(=O)c1ccc(-c2cc(Cl)cc3[nH]ncc23)cc1 [Compound 256] | 3.24 to 31.6 | < 3.16 | > 100 | < 3.16 |  |  |  | 
22 | CNC(=O)c1ccc(-c2cc(Cl)cc3[nH]ncc23)cc1 [Compound 257] | 3.24 to 31.6 | < 3.16 | > 100 | < 3.16 |  |  |  | 
23 | CC(C)(O)c1cc(Cl)cc2[nH]ncc12 [Compound 259] | 32.4 to 100 | < 3.16 | > 100 | < 3.16 |  |  |  | 
24 | CC(C)C(O)c1cc(Cl)cc2[nH]ncc12 (stereo not drawn) [Compound 260] | 3.24 to 31.6 | < 3.16 | 3.24 to 31.6 | < 3.16 |  |  |  | 

Continued, values first:

Row | IC50 (IDO [1]; [5]) [µM] | IC50 (TDO [2]; 17 minutes, room temperature) [µM] | IC50 (IDO [3]; 17 minutes, room temperature) [µM] | IC50 (TDO [4]; 500 μM L-tryptophan) [µM] | IC50 (IDO [1]; SKOV3 cells, IDO induced by 500 ng/ml IFN-γ) [µM] | IC50 (TDO [2]) [µM] | IC50 (IDO [3]) [µM] | IC50 (TDO [4]) [µM] | SMILES
25 | < 3.16 | < 3.16 | 3.24 to 31.6 | < 3.16 |  |  |  |  | CS(=O)(=O)c1ccc(-c2cc(Cl)cc3[nH]ncc23)cc1Cl [Compound 264]
26 | 3.24 to 31.6 | < 3.16 | 3.24 to 31.6 | < 3.16 |  |  |  |  | CS(=O)(=O)c1ccc(-c2cc(Cl)cc3[nH]ncc23)cc1F [Compound 265]
27 | 3.24 to 31.6 | < 3.16 | > 100 | < 3.16 |  |  |  |  | COc1cc(S(C)(=O)=O)ccc1-c1cc(Cl)cc2[nH]ncc12 [Compound 266]
28 | 3.24 to 31.6 | < 3.16 | 3.24 to 31.6 | < 3.16 |  |  |  |  | O=C1NCC2(CCN(c3cc(Cl)cc4[nH]ncc34)CC2)N1 [Compound 267]
29 | 3.24 to 31.6 | < 3.16 | 32.4 to 100 | < 3.16 |  |  |  |  | Cc1cc(S(C)(=O)=O)ccc1-c1cc(Cl)cc2[nH]ncc12 [Compound 268]
30 | 3.24 to 31.6 | < 3.16 | > 100 | < 3.16 |  |  |  |  | NS(=O)(=O)c1ccc(-c2cc(Cl)cc3[nH]ncc23)cc1 [Compound 269]
31 | 32.4 to 100 | < 3.16 | > 100 | < 3.16 |  |  |  |  | OC(c1ccccc1)c1cc(Cl)cc2[nH]ncc12 (stereo not drawn) [Compound 271]
32 | 3.24 to 31.6 | < 3.16 | 32.4 to 100 | < 3.16 |  |  |  |  | CC(C)CC(O)c1cc(Cl)cc2[nH]ncc12 (stereo not drawn) [Compound 272]
33 | 3.24 to 31.6 | < 3.16 | 3.24 to 31.6 | < 3.16 | 9.55 | 0.0851 | 11.7 | 0.0135 | OC1(c2cc(Cl)cc3[nH]ncc23)CCCCC1 [Compound 273, 1-(6-chloro-1H-indazol-4-yl)cyclohexanol]
34 | 3.24 to 31.6 | < 3.16 | > 100 | < 3.16 |  |  |  |  | CN(C)S(=O)(=O)c1ccc(-c2cc(Cl)cc3[nH]ncc23)cc1 [Compound 277]
35 | 3.24 to 31.6 | < 3.16 | 32.4 to 100 | < 3.16 |  |  |  |  | CC(=O)N(C)C1CCN(c2cc(Cl)cc3[nH]ncc23)C1 (stereo not drawn) [Compound 278]
36 | < 3.16 | < 3.16 | > 100 | < 3.16 |  |  |  |  | CNc1cc(-c2cc(Cl)cc3[nH]ncc23)ccn1 [Compound 279]
37 | 3.24 to 31.6 | < 3.16 | 3.24 to 31.6 | < 3.16 |  |  |  |  | O=C1CC2(CCN(c3cc(Cl)cc4[nH]ncc34)CC2)CN1 [Compound 280]
38 | 3.24 to 31.6 | < 3.16 | 3.24 to 31.6 | < 3.16 |  |  |  |  | OC(Cc1ccccc1)c1cc(Cl)cc2[nH]ncc12 (stereo not drawn) [Compound 281]
39 | 3.24 to 31.6 | < 3.16 | 32.4 to 100 | < 3.16 |  |  |  |  | CC(=O)N(C)CC1CCN(c2cc(Cl)cc3[nH]ncc23)CC1 [Compound 282]
40 | 3.24 to 31.6 | < 3.16 | > 100 | 3.24 to 31.6 |  |  |  |  | CC(=O)NCC1CCCN(c2cc(Cl)cc3[nH]ncc23)C1 (stereo not drawn) [Compound 283]
41 | 32.4 to 100 | < 3.16 | > 100 | 3.24 to 31.6 |  |  |  |  | CS(=O)(=O)NCC1CCCN(c2cc(Cl)cc3[nH]ncc23)C1 (stereo not drawn) [Compound 284]
42 | 32.4 to 100 | 3.24 to 31.6 | > 100 | 3.24 to 31.6 |  |  |  |  | CN(CC1CCCN(c2cc(Cl)cc3[nH]ncc23)C1)S(C)(=O)=O (stereo not drawn) [Compound 285]
43 | 3.24 to 31.6 | < 3.16 | > 100 | 3.24 to 31.6 |  |  |  |  | CC(=O)N(C)CC1CCCN(c2cc(Cl)cc3[nH]ncc23)C1 (stereo not drawn) [Compound 286]
44 | > 100 | 3.24 to 31.6 | > 100 | 3.24 to 31.6 |  |  |  |  | COC(C)c1cc(Cl)cc2[nH]ncc12 (stereo not drawn) [Compound 287]
45 | > 100 | < 3.16 | > 100 | < 3.16 |  |  |  |  | COCCc1cc(Cl)cc2[nH]ncc12 [Compound 288]
46 | 32.4 to 100 | < 3.16 | 32.4 to 100 | < 3.16 |  |  |  |  | OC(CC1CCOCC1)c1cc(Cl)cc2[nH]ncc12 (stereo not drawn) [Compound 289]
47 | < 3.16 | < 3.16 | < 3.16 | < 3.16 |  |  |  |  | O=C1NC(=O)C2(CCN(c3cc(Br)cc4[nH]ncc34)CC2)N1 [Compound 290]
